Test results taken from patent US20250146012A1 (priority 2011, published 2025).
Where two headings read alike, the source gives them in different places.

Experiments:
[1] = system: plants comprising the MON 88701 event; type: in vivo, Gossypium hirsutum
Description: In year 3, efficacy field testing of event MON 88701 was conducted to study the rate and timing of application of dicamba and/or glufosinate. […] The treatment and application timing are detailed in Table 2. […] The sprayer protocol was as described for year 2 efficacy field testing. Stand rating, visual injury rating (percent epinasty, percent necrosis), plant height and node number, 50-boll sampling, and yield determinations were as described for agronomic and efficacy field testing above.

[2] = system: wild-type cotton (Coker 130); test: Year 2 efficacy field trial, wild-type plots; type: in vivo, Gossypium hirsutum; conditions: 1× rate (0.5 lb/A), half plot each herbicide, at one post-emergence timing (Early, Mid, Late)
Description: In year 2, efficacy testing was conducted with twelve events compared to non-transgenic, wild-type Coker 130. For this testing, paired plots were either sprayed or not sprayed. The plots were maintained weed-and insect-free using conventional control programs for the duration of the trial. For the plots that were sprayed, the following treatment applications were conducted (1) 0.5 lb/A dicamba applied PRE, Early POST, Mid POST and Late POST; (2) 1 lb/A dicamba applied PRE, Early POST, Mid POST and Late POST; (3) 2 lb/A dicamba applied PRE, Early POST, Mid POST and Late POST; (4) 0.5 lb/A glufosinate applied Early POST, Mid POST and Late POST: (5) 1 lb/A glufosinate applied Early POST, Mid POST and Late POST: 6) 2 lb/A glufosinate applied Early POST, Mid POST and Late POST; and 7) Control (unsprayed). Preemergence (PRE) is defined as immediately after cotton planting (within 24 hours); Early POST as 2-node cotton; Mid POST as 8-node cotton; and Late POST as 14 node cotton. […]
At each rating time, the following observations were recorded: 1) percent necrosis or burn on the most affected leaves; 2) percent necrosis or burn on a whole-plant basis; 3) epinasty; and 4) any other relevant injury that was observed. […] Plots were harvested and recorded as lbs/plot of seedcotton and expressed as lb/acre of seedcotton.

[3] = system: plants comprising the MON 88701 event
Description: In year 2, efficacy testing was conducted with twelve events compared to non-transgenic, wild-type Coker 130. For this testing, paired plots were either sprayed or not sprayed. The plots were maintained weed-and insect-free using conventional control programs for the duration of the trial. For the plots that were sprayed, the following treatment applications were conducted (1) 0.5 lb/A dicamba applied PRE, Early POST, Mid POST and Late POST; (2) 1 lb/A dicamba applied PRE, Early POST, Mid POST and Late POST; (3) 2 lb/A dicamba applied PRE, Early POST, Mid POST and Late POST; (4) 0.5 lb/A glufosinate applied Early POST, Mid POST and Late POST: (5) 1 lb/A glufosinate applied Early POST, Mid POST and Late POST: 6) 2 lb/A glufosinate applied Early POST, Mid POST and Late POST; and 7) Control (unsprayed). Preemergence (PRE) is defined as immediately after cotton planting (within 24 hours); Early POST as 2-node cotton; Mid POST as 8-node cotton; and Late POST as 14 node cotton. For these efficacy field trials, there were three plots composed entirely of wild-type cotton (Coker 130). At each post-emergence timing (Early, Mid, Late), one-half of a plot was sprayed with the 1× rate (0.5 lb/A) of dicamba and one-half of the same plot was sprayed with the 1× rate (0.5 lb/A) of glufosinate. Each of the three plots received dicamba and glufosinate spray at one of the post-emergence timing spray applications (Early, Mid, Late).
XR TeeJet® extended range flat spray tips with an 80-degree spray angle were used (TeeJet Technologies, Wheaton, IL). There were 2 nozzles per row (nozzles spaced at 15″ for 30″ rows, 19″ for 38″ rows and 20″ for 40″ rows). Nozzle size depended on sprayer speed and nozzle spacing; however, nozzle size was selected to result in a spray pressure of 25 to 35 PSI. Boom height was adjusted to allow for 50% spray overlap (which occurs at roughly 30″ above the top of the crop).
At each rating time, the following observations were recorded: 1) percent necrosis or burn on the most affected leaves; 2) percent necrosis or burn on a whole-plant basis; 3) epinasty; and 4) any other relevant injury that was observed. Ratings were taken four days after each application and immediately prior to subsequent applications. […] Plots were harvested and recorded as lbs/plot of seedcotton and expressed as lb/acre of seedcotton.

[4] = system: non-transgenic, wild-type Coker 130; test: Year 1 efficacy field trial, wild-type control; type: in vivo, Gossypium hirsutum; conditions: sequential regimen: dicamba 1 lb/A preemergence, 5 node, 12 node; glufosinate 1.09 lb/A at 2 node and 8 node; FIG. 7
Description: (§1) In year 1, efficacy testing was conducted with eight events compared to non-transgenic, wild-type Coker 130. For this testing, paired plots were sprayed with dicamba (Clarity®, BASF, Research Triangle Park, NC) and glufosinate (Ignite®, Bayer CropScience, Research Triangle Park, NC) or left unsprayed. The plots were maintained weed-and insect-free using conventional control programs for the duration of the trial. […] For plots that were sprayed, the following applications were conducted: dicamba was applied preemergence at 1 lb/A followed by glufosinate applied 1.09lb/A at the 2 node stage, followed by dicamba applied at 1 lb/A at the 5 node stage, followed by glufosinate applied 1.09 lb/A at the 8 node stage, followed by dicamba applied at 1 lb/A at the 12 node stage. Neither dicamba nor glufosinate were applied with surfactants, fertilizer additive, or other adjuvant. […] Plots were harvested and yield recorded as lbs/plot of seed cotton and expressed as lb/acre of seed cotton. […]

[5] = system: transgenic cotton events (eight events)
Description: as §1

## 2-amino-4-(hydroxymethylphosphinyl)butanoic acid [glufosinate]
[1]; all other treatment regimens of Table 2 (0.25-1 lb ai/A, four timings), FIG. 6
  yield of seedcotton: no yield loss
[2]
  survival of herbicide spray: did not survive
[3]; 0.5, 1, 2 lb/A glufosinate Early, Mid, Late POST, FIG. 5.B
  injury rating with increasing application rates of glufosinate: increased percentage of injury
[3]; 0.5, 1, 2 lb/A glufosinate applied Early POST, Mid POST and Late POST, FIG. 4.B
  yield of seedcotton with increasing application rates of glufosinate: nearly equivalent
[4]
  survival of the spray regimen: did not survive
[5]; sequential regimen: dicamba 1 lb/A preemergence, 5 node, 12 node, glufosinate 1.09 lb/A at 2 node and 8 node, FIG. 3
  yield of seed cotton, paired sprayed and unsprayed events compared to unsprayed wild-type Coker 130: no significant difference

## COc1c(Cl)ccc(Cl)c1C(=O)O [dicamba, 3,6-dichloro-2-methoxybenzoic acid]
[1]; in vivo
  yield of seedcotton: no yield loss
[2]
  survival of herbicide spray: did not survive
[3]; in vivo
  injury rating with increasing application rates of dicamba: increased percentage of injury
  yield of seedcotton with increasing application rates of dicamba: nearly equivalent
[4]
  survival of the spray regimen: did not survive
[5]; in vivo
  yield of seed cotton, paired sprayed and unsprayed events compared to unsprayed wild-type Coker 130: no significant difference
